Results taken from ChEMBL document CHEMBL5230154, “Chemical probe of AHL modulators on quorum sensing in Gram-Negative Bacteria and as antiproliferative agents: A review” (Eur J Med Chem, 2021).

Experiments:
[1] = biological target: T1, Transcriptional activator protein LasR (Pseudomonas aeruginosa (strain ATCC 15692 / PAO1 / 1C / PRS 101 / LMG12228)) (UniProt P25084); experiment: Antagonist activity against LasR-mediated quorum sensing system in Pseudomonas aeruginosa PAO1 assessed as inhibition of pyocyanin production at 200 uM incubated for 13 hrs by spectrophotometric assay; conditions: filed as antagonist
T1 sequence (whole entry): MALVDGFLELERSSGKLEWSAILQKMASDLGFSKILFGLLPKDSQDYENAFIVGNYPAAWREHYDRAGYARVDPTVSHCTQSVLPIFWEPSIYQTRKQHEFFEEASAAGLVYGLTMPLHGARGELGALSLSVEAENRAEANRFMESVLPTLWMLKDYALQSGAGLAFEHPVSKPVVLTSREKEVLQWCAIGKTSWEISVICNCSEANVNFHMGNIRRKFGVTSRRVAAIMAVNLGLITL

[2] = biological target: T2, Transcriptional activator protein LuxR (Vibrio fischeri (strain ATCC 700601 / ES114), UniProt P35327); experiment: Antagonist activity against LuxR mediated quorum sensing system in Vibrio fischeri ES114 expressing luxI assessed as decrease in luminescence intensity incubated for 4 to 8 hrs by bioluminescence analysis; parameters: species or system Aliivibrio fischeri
T2 sequence (P35327 whole entry): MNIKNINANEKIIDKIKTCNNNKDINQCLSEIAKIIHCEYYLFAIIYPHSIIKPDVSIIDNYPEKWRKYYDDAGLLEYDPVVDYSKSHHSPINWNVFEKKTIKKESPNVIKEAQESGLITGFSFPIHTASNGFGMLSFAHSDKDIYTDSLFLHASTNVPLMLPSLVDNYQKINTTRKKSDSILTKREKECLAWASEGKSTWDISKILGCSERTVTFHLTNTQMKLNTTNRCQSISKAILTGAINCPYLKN

[3] = Agonist activity against RhlR in Escherichia coli expressing JLD271/pJN105R2/pSC11-rhlI using CPRG as substrate by spectrophotometric assay
[4] = biological target: T3, HTH-type quorum-sensing regulator RhlR (Pseudomonas aeruginosa (strain ATCC 15692 / PAO1 / 1C / PRS 101 / LMG12228), UniProt P54292); experiment: Agonist activity against RhlR in Pseudomonas aeruginosa PAO-JP2 expressing prhlI-LVAgfp using CPRG as substrate by spectrophotometric assay
T3 sequence (P54292 whole entry): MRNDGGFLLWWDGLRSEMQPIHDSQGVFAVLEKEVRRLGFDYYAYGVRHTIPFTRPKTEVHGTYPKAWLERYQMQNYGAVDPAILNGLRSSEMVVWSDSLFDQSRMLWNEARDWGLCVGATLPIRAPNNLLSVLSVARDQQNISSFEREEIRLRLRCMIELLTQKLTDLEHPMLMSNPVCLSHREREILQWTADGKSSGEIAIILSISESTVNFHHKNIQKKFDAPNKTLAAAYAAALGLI

[5] = Inhibition of quorum sensing system in Pseudomonas aeruginosa MW1 assessed as inhibition of LasR expression at 33 uM incubated for 8 to 12 hrs in presence of 3-oxo-C12 HSL by fluorescence analysis; conditions: time 8-12 hrs
[6] = Inhibition of quorum sensing system in Pseudomonas aeruginosa MW1 assessed as inhibition of LasR expression incubated for 8 to 12 hrs in presence of 3-oxo-C12 HSL by fluorescence analysis
[7] = Cytotoxicity against human PBMC cells assessed as reduction in cell viability at 100 uM by MTT assay; assay type: toxicity, cell-based
[8] = Inhibition of quorum sensing system in Pseudomonas aeruginosa PA14 assessed as inhibition of pyocyanin production incubated for 17 hrs by spectrophotometric assay
Pseudomonas aeruginosa [9] = experiment: Antagonist activity against quorum sensing system in Pseudomonas aeruginosa PAO-JP2 (plasI-LVAgfp) assessed as inhibition of 3-oxo-C12 HSL induced GFP expression at 100 uM incubated for 6 hrs in presence of 10 uM of 3-oxo-C12-D10 by fluorescence analysis; conditions: filed as antagonist
Pseudomonas aeruginosa [10] = experiment: Antagonist activity against quorum sensing system in Pseudomonas aeruginosa PAO-JP2 (plasI-LVAgfp) assessed as inhibition of 3-oxo-C12 HSL induced GFP expression at 100 uM incubated for 6 hrs in presence of 50 uM of 3-oxo-C12-D10 by fluorescence analysis; conditions: filed as antagonist
Pseudomonas aeruginosa [11] = experiment: Antagonist activity against quorum sensing system in Pseudomonas aeruginosa PAO-JP2 (plasI-LVAgfp) assessed as inhibition of 3-oxo-C12 HSL induced GFP expression at 100 uM incubated for 6 hrs in presence of 100 uM of 3-oxo-C12-D10 by fluorescence analysis; conditions: filed as antagonist
Escherichia coli = experiment: Antagonist activity against quorum sensing system in Pseudomonas aeruginosa PAO1 assessed as inhibition of 3OC6HSL- induced GFP expression at 50 uM by fluorescence analysis; conditions: filed as antagonist
[12] = Antagonist activity against quorum sensing system in Pseudomonas aeruginosa PAO1 transfected with lasB-lacZ reporter gene assessed as inhibition of beta-galactosidase activity incubated for 24 hrs by elastin-Congo red assay
Pseudomonas aeruginosa [13] = experiment: Inhibition of Pseudomonas aeruginosa MH602 harboring PlasB::gfp(ASV) reporter assessed as decrease in GFP expression at 250 uM incubated for 22 hrs by fluorescence microplate reader analysis
Pseudomonas aeruginosa [14] = experiment: Inhibition of Pseudomonas aeruginosa MH602 harboring PlasB::gfp(ASV) reporter assessed as decrease in GFP expression at 125 uM incubated for 22 hrs by fluorescence microplate reader analysis
Pseudomonas aeruginosa [15] = experiment: Inhibition of quorum sensing system in Pseudomonas aeruginosa MH602 expressing PlasB::gfp assessed as inhibition of GFP fluorescence expression at 250 uM incubated for 15 hrs by fluorescence microplate reader analysis
[16] = Inhibition of quorum sensing system in Pseudomonas aeruginosa PAO1 assessed as inhibition of pyocyanin production at 250 uM incubated for 17 hrs by spectrophotometric analysis
[17] = Inhibition of quorum sensing system in Pseudomonas aeruginosa PAO1 assessed as inhibition of pyocyanin production at 32 uM incubated for 17 hrs by spectrophotometric analysis
[18] = Inhibition of quorum sensing system in Pseudomonas aeruginosa PA14 assessed as inhibition of pyocyanin production by UV-vis spectrophotometric assay
Pseudomonas aeruginosa [19] = experiment: Anti-motility activity against Pseudomonas aeruginosa PAO1 NCTC 10332 assessed as reduction in swarming at 50 uM and measured after 16 hr by swarming assay; assay type: functional; parameters: scale not given: the % may be the effect or the level left
Pseudomonas aeruginosa [20] = experiment: Anti-motility activity against Pseudomonas aeruginosa PAO1 NCTC 10332 assessed as reduction in swimming at 50 uM and measured after 18 hr; assay type: functional; parameters: scale not given: the % may be the effect or the level left
[21] = Inhibition of quorum sensing system in Pseudomonas aeruginosa PAO1 assessed as inhibition of pqsR expression incubated for 4 hrs by RT-PCR analysis
[22] = biological target: T4, Transcriptional activator protein LasR (Pseudomonas aeruginosa (strain ATCC 15692 / PAO1 / 1C / PRS 101 / LMG12228), UniProt P25084); experiment: Antagonist activity against LasR-mediated quorum sensing system in Pseudomonas aeruginosa PAO1 by spectrophotometric assay
T4 sequence (P25084 whole entry): T1 sequence (whole entry)

[23] = Inhibition of quorum sensing system in Pseudomonas aeruginosa PAO1 assessed as inhibition of pyocyanin production at 15 uM incubated for 12 hrs by spectrophotometric assay
[24] = Inhibition of quorum sensing system in Pseudomonas aeruginosa PAO1 assessed as inhibition of elastase production at 15 uM incubated for 12 hrs by Congo red dye based spectrophotometric assay
[25] = Inhibition of quorum sensing system in Pseudomonas aeruginosa PAO1 assessed as inhibition of rhamnolipid production at 15 uM incubated for 12 hrs by spectrophotometric assay
Pseudomonas aeruginosa [26] = experiment: Inhibition of biofilm formation in Pseudomonas aeruginosa PAO1 incubated for 12 hrs by crystal violet staining based analysis; assay type: functional
[27] = Inhibition of quorum sensing system in Pseudomonas aeruginosa PAO1 assessed as decrease in lasI expression at 15 uM incubated for 12 hrs by real-time fluorescent quantitative PCR analysis
[28] = Inhibition of quorum sensing system in Pseudomonas aeruginosa PAO1 assessed as decrease in pqsR expression at 15 uM incubated for 12 hrs by real-time fluorescent quantitative PCR analysis
[29] = Inhibition of quorum sensing system in Pseudomonas aeruginosa PAO1 assessed as decrease in rhlR expression at 15 uM incubated for 12 hrs by real-time fluorescent quantitative PCR analysis
Pseudomonas aeruginosa [30] = experiment: Antagonist activity against quorum sensing system in Pseudomonas aeruginosa PAO-JP2 (plasI-LVAgfp) assessed as inhibition of 3-oxo-C12 HSL induced GFP expression at 100 uM incubated for 6 hrs in presence of 1 uM of 3-oxo-C12 HSL by fluorescence analysis

CCCCCCCCCC(=O)CC(=O)Nc1cccc(I)c1
inhibition [1]: 67%

O=C(Cc1ccccc1)N[C@H]1CCOC1=O
IC50 [2]: 0.6 µM

CCCCC(=O)N[C@H]1CCSC1=O
EC50 [3]: 4.87 µM
EC50 [4]: 3.82 µM

CCCCCCCCCCCCn1nnc(CC(=O)O)n1
inhibition [5]: 50%
IC50 [6]: 30 µM

O=C(CCCNc1ccc(F)cc1)NC1CCOC1=O (stereo not given)
Activity [7]: 49.2%

O=C(CCCOc1cccc(Br)c1)NC1CCSC1=O (stereo not given)
IC50 [8]: 8 µM

CCCCCCCCCC(=O)CC(=O)Nc1cccc(OC)c1
inhibition [1]: 93%

CCCCCCCCCC(=O)CC(=O)Nc1ccccc1O
inhibition (Pseudomonas aeruginosa [9]): 60%
inhibition (Pseudomonas aeruginosa [10]): 80%
inhibition (Pseudomonas aeruginosa [11]): 90%

CCOC(=O)/C=C1\CC(NCc2ccco2)C(=O)N1Cc1ccco1 (stereo not given)
inhibition (Escherichia coli): 56.9%

CCCCCCCC(=O)NC1CCCC1
IC50 [12]: 250 µM

C#CNC(=O)C(=O)c1cc(Br)ccc1NC(=O)CCl
inhibition (Pseudomonas aeruginosa [13]): 31.8%
inhibition (Pseudomonas aeruginosa [14]): 65%

Nc1cccc(N2CC(Cl)=C(Cl)C2=O)c1
inhibition (Pseudomonas aeruginosa [15]): 80.4%
inhibition [16]: 90%
inhibition [17]: 80%

O=C(Cc1ccc(Cl)cc1)N[C@H]1CCOC1=O
IC50 [2]: 0.6 µM

Clc1ccc2c(NCCCCCCCCNCc3cc4ccccc4s3)ccnc2c1
IC50 [18]: 25 µM
Activity (Pseudomonas aeruginosa [19]): 40%
Activity (Pseudomonas aeruginosa [20]): 40%
IC50 [21]: 30 µM

O=C(CC1CCC1)N[C@H]1CCOC1=O
EC50 [3]: 1.78 µM
EC50 [4]: 1.41 µM

O=C1C(Cl)=C(Cl)CN1c1cccc(O)c1
inhibition (Pseudomonas aeruginosa [15]): 78%
inhibition [16]: 90%
inhibition [17]: 80%

CC1=C(Br)/C(=C(\C)Br)OC1=O
IC50 [22]: 17.4 µM
inhibition [23]: 31.6%
inhibition [24]: 16.5%
inhibition [25]: 25.8%
inhibition (INH) (Pseudomonas aeruginosa [26]): 28.6%
inhibition [27]: 26.9%
inhibition [28]: 45%
inhibition [29]: 58.8%

CCCCCCCCCCCC(=O)NC1CCCCC1=O (stereo not given)
inhibition (Pseudomonas aeruginosa [30]): 30%

CCOC(=O)/C=C1\CC(NCc2ccc(C)cc2)C(=O)N1Cc1ccc(C)cc1 (stereo not given)
inhibition (Escherichia coli): 47.9%

O=C(Cc1ccc(-c2ccccc2)cc1)N[C@H]1CCOC1=O
IC50 [2]: 0.6 µM
